pKi: −log10 of the molar value. Like-named read-outs stand apart in the source and are kept apart here.
What was measured:
[1] = target: T1, Recombinant human M3 receptor (Homo sapiens, UniProt P20309); experiment: Muscarinic Receptor Radioligand Binding Assay ([3H]-NMS, SPA)
T1 construct: expressed in transfected cells; host or cells: CHO-K1 cells (membranes prepared from them)
Method: The inhibitory effects of compounds of the muscarinic antagonists were determined by a Muscarinic Receptor Radioligand Binding Assay.
Recombinant human M3 receptor was expressed in CHO-K1 cells. Cell membranes were prepared and binding of [3H]-N-methyl scopolamine ([3H]-NMS) and compounds was assessed by a scintillation proximity assay (SPA). The incubation time was 16 hours at ambient temperature in the presence of 1% (v/v) DMSO. The assay was performed in white 96 well clear-bottomed NBS plates (Corning). Prior to the assay, the CHO cell membranes containing M3 receptor were coated onto SPA WGA (Wheat germ agglutinin) beads (GE Healthcare). Non specific binding was determined in the presence of 1 μM Atropine.
Radioactivity was measured on a Microbeta scintillation counter (PerkinElmer) using a 3H protocol with a 2 minutes per well read time. […] Concentration dependent inhibition of [3H]-NMS binding by compounds was expressed as pIC50.

[2] = Dynamic vapour sorption (DVS) analysis of crystalline form; assay type: physicochemical; conditions: at 80% RH, 25° C., crystalline material
Method: Dynamic vapour sorption (DVS) analysis was performed on a Surface Measurement systems (SMS) DVS-Intrinsic moisture sorption analyser. The instrument was controlled by SMS Analysis Suite software (DVS-Intrinsic Control v1.0.0.30). Analysis of the data was performed using Microsoft Excel 2007 together DVS Standard Analysis Suite (v6.0.0.7). Sample temperature was maintained at 25° C. and the sample humidity was obtained by mixing streams of wet and dry nitrogen at a total flow rate of 200 mlmin^−1. The relative humidity was measured using a calibrated Rotronic probe (dynamic range 1-100% Relative Humidity (RH)) located close to the sample. The weight change of the sample as a function of % RH was constantly monitored by the microbalance (accuracy ±0.005 mg). Typically a PXRD would be run prior to analysis. 20 mg of sample was then placed in a tared stainless steel mesh basket under ambient conditions. The sample was loaded and unloaded at 40% RH and 25° C. (typical room conditions) and the sample subjected to a graduated DVS regime over 2 cycles using the parameters shown in Table 1.

[3] = Gravimetric Vapour Sorption (GVS) of crystalline forms; assay type: physicochemical; conditions: at 80% RH, crystalline material
Method: Gravimetric Vapour Sorption (GVS) profiles were measured using a Surface Measurements Systems Dynamic Vapour Sorption DVS-1 or a DVS Advantage instrument. The solid sample ca. 1-5 mg was placed into a glass vessel and the weight of the sample was recorded during a dual cycle step method (40 to 90 to 0 to 90 to 0% relative humidity (RH), in steps of 10% RH).

[4] = CHO-K1 cell membranes, [3H]-NMS, 16 hours at ambient temperature, 1% DMSO, read-out: Ki in the M3 binding assay

T1 sequence (P20309 whole entry): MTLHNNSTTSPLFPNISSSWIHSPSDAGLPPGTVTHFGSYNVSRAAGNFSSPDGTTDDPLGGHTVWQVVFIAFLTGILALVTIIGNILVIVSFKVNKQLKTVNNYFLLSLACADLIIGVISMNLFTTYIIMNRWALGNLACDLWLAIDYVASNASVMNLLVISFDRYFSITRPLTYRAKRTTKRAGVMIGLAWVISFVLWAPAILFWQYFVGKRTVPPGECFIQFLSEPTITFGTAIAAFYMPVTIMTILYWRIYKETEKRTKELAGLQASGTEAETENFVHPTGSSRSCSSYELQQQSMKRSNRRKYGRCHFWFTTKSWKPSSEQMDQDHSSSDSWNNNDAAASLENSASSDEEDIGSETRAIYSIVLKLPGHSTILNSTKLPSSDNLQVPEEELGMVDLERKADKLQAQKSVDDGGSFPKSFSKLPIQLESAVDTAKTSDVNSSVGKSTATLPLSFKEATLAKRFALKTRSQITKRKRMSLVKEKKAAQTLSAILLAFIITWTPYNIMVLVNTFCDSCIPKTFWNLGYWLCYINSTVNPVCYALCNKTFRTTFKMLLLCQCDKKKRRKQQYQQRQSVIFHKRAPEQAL

SMILES | pKi [1, 4] | other results
O[C@](c1ccccc1)(c1nnc(C[N+]23CCC(CC2)[C@@H](Oc2ccc(F)cc2)C3)o1)C1CCCCC1 [Example 5, (R)-1-[5-((R)-Cyclohexyl-hydroxy-phenyl-methyl)-[1,3,4]oxadiazol-2-ylmethyl]-3-(4-fluoro-phenoxy)-1-azonia-bicyclo[2.2.2]octane bromide] | 9.15 | –
O=S(=O)([O-])c1ccccc1.O[C@](c1ccccc1)(c1cc(C[N+]23CCC(CC2)[C@@H](Oc2ccc(F)cc2)C3)on1)C1CCCCC1 [Example 2, (R)-1-[3-((R)-Cyclohexyl-hydroxy-phenyl-methyl)-isoxazol-5-ylmethyl]-3-(4-fluoro-phenoxy)-1-azonia-bicyclo[2.2.2]octane benzenesulfonate] | – | DVS weight increase [2]: 0.2 % w/w
Cc1ccc(O[C@H]2C[N+]3(Cc4cc(C(O)(c5ccccc5)c5ccccc5)no4)CCC2CC3)cc1F [Example 7, (R)-3-(3-Fluoro-4-methyl-phenoxy)-1-[3-(hydroxy-diphenyl-methyl)-isoxazol-5-ylmethyl]-1-azonia-bicyclo[2.2.2]octane bromide] | 9.40 | –
O[C@](c1ccccc1)(c1cc(C[N+]23CCC(CC2)[C@@H](Oc2ccc(F)cc2)C3)on1)C1CCCCC1 [Example 1, (R)-1-[3-((R)-Cyclohexyl-hydroxy-phenyl-methyl)-isoxazol-5-ylmethyl]-3-(4-fluoro-phenoxy)-1-azonia-bicyclo[2.2.2]octane chloride] | 9.10 | –
O[C@](c1ccccc1)(c1cc(C[N+]23CCC(CC2)[C@@H](Oc2cccc(F)c2)C3)on1)C1CCCCC1 [Example 3, (R)-1-[3-((R)-Cyclohexyl-hydroxy-phenyl-methyl)-isoxazol-5-ylmethyl]-3-(3-fluoro-phenoxy)-1-azonia-bicyclo[2.2.2]octane chloride] | – | pKi [1]: 9.18
OC(c1ccccc1)(c1ccccc1)c1cc(C[N+]23CCC(CC2)[C@@H](Sc2cccc(F)c2)C3)on1 [Example 6, (R)-3-(3-Fluoro-phenylsulfanyl)-1-[3-(hydroxy-diphenyl-methyl)-isoxazol-5-ylmethyl]-1-azonia-bicyclo[2.2.2]octane bromide] | 9.82 | –
O[C@](c1ccccc1)(c1cc(C[N+]23CCC(CC2)[C@@H](Oc2cccc(F)c2)C3)on1)C1CCCCC1 [Example 8, (R)-1-[3-((R)-Cyclohexyl-hydroxy-phenyl-methyl)-isoxazol-5-ylmethyl]-3-(3-fluoro-phenoxy)-1-azonia-bicyclo[2.2.2]octane 2-hydroxy-ethanesulfonate] | – | GVS mass increase [3]: 0.15%
